Results as given in US9708628B2, “Cationic lipid having improved intracellular kinetics” (NOF CORPORATION, priority 2011, dated 2017).

Key:
[1] = Particle size and surface potential of pDNA-encapsulating MENDs, dynamic light scattering (Zetasizer Nano); assay type: physicochemical; conditions: pDNA MEND, cationic lipid:SOPE:Chol = 3:4:3
Protocol: A solution of pDNA encoding luciferase gene and protamine (CALBIOCHEM) solution were diluted with 10 mM HEPES buffer to 0.3 mg/mL and […], respectively. While stirring 0.3 mg/mL pDNA (125 μL), 0.24 mg/mL protamine (125 μL) was added dropwise in small portions to prepared an electrostatic complex of protamine and pDNA (N/P ratio=1.2) as a core of the vector. In the method described in the following (2), 10 mM HEPES buffer (pH 5.3) was used and, in the method described in (3), 10 mM HEPES buffer (pH 7.4) was used.
A lipid solution in ethanol was prepared by mixing 5 mM cationic lipid, 5 mM phospholipid and 5 mM cholesterol (Chol) at desired ratios to achieve 165 nmol total lipid in an Eppendorf tube, further adding various PEG lipids (1 mM solution in ethanol) in an amount corresponding to 3 mol % of the total lipid, and adding ethanol to achieve a total volume of 100 μL. While stirring the lipid solution in a vortex mixer, 100 μL of the nucleic acid electrostatic complex (10 mM HEPES; pH 5.3) prepared in [Experimental Example 1] (1) was quickly added, and thereafter 10 mM HEPES buffer (1.8 mL, adjusted to pH 5.3) was added to dilute the mixture to an ethanol concentration of 5%. The mixture was concentrated to about 50 μL by ultrafiltration using Amicon Ultra 4 (Millipore) under centrifugation conditions (room temperature, 2267 rpm, 20 min). Thereafter, it was diluted to 4 mL with 100 mM HEPES buffer (adjusted to pH 7.4), and again concentrated by centrifugation (2267 rpm, 20 min) under room temperature conditions. Finally, it was diluted with 10 mM HEPES buffer (pH 7.4) to a desired lipid concentration.
A solution of each lipid in chloroform (5 mM DOTAP 24.75 μL, 5 mM DOPE 33 μL, 5 mM Chol 24.75 μL) were mixed in a glass test tube at DOTAP:DOPE:Chol=3:4:3 to achieve 412.5 nmol total lipid. Ethanol was added to a total amount of 250 μL, and the mixture was dried under reduced pressure in a desiccator. The solvent was evaporated to give a lipid thin film. To the lipid thin film was added 250 μL of the gene electrostatic complex (in 10 mM HEPES; pH 7.4) prepared in [Experimental Example 1] (1) to a total lipid concentration of 1.65 mM, and the mixture was stood at room temperature for 10 min to allow for hydration, and sonicated by a sonicator (AIWA MEDICAL […] CO., LTD.) for 1 min.
The particle size and the surface potential were measured by the dynamic light scattering method (Zetasizer Nano; Malve Rn). The particle size and the surface potential of the various MENDs prepared by the preparation method of [Experimental Example 1] are shown in Table 3. The charge of B-2 and DODAP at physiological pH was in a preferable mode of −10 to +10 mV, whereas that of B-2-1 was +12.3, which is not less than +10 mV.
(1) MEND having a composition of B-2-4 (Example 4):DOPE:Chol=3:3:4 or B-2-5 (Example 5):POPE:Chol=3:4:3 was prepared according to the method described in [Experimental Example 1] (1) and (2).
The particle size and the surface potential were measured by the dynamic light scattering method (Zetasizer Nano; Malvern). The particle size and the surface potential of the various MENDs prepared by the preparation method of [Experimental Example 1] are shown in Table 4.

HT1080 cells = assay: Gene expression by MEND (luciferase assay, RLU/mg protein); assay type: cell-based; conditions: cationic lipid:SOPE:Chol=3:4:3, PEG2000DSG; pDNA 0.4 μg/well, 24 hr
Protocol: Using B-2 (Example 1), B-2-1 (Comparative Example 1), and DODAP (Comparative Example 2) as cationic lipids, MENDs having a composition of cationic lipid:SOPE:Chol=3:4:3 were prepared by the method described in [Experimental Example 1] (2). For the preparation, PEG2000DSG was used as PEG lipid, and MEND solutions corresponding to 0.55 mM of the lipid concentration were prepared. For cationic MEND, lipids having a composition of DOTAP:DOPE:Chol:=3:4:3 were used, and the cationic MEND was prepared according to the method described in [Experimental Example 1] (3).
HT1080 cells were plated on a 24-well plate at 4×10^4 cells/500 μL/well 24 hr before, various MENDs were diluted with DMEM (FBS 10%+) to a pDNA amount of 0.4 μg/500 μL/well and transfected. 24 hr later, the cells were washed with PBS(−) (500 μL), 1× Lysis buffer was added to each well by 75 μL, and the mixture was stood at −80° C. for 30 min or longer. The frozen 24-well plate was thawed on ice, the cells were detached with a cell scraper, and the total amount thereof was transferred into an Eppendorf tube and centrifuged under the conditions of 15000 rpm, 4° C., 5 min. The supernatant (50 μL) was recovered in a different Eppendorf tube, and used for luciferase assay and BCA assay.
20 μL thereof was mixed with a Luciferase assay substrate (50 μL), and the luciferase activity in a given time was measured by a luminometer. The obtained lysate was diluted 5-fold with DDW to achieve 25 μL total volume. Thereto was added BCA Protein Assay Reagent (200 μL), and the mixture was stood at 37° C. for 30 min. Thereafter, the absorbance at 562 nm was measured, and the protein amount of the sample was calculated from the absorbance of a BSA solution having a known concentration. The luciferase activity (RLU) was adjusted by dividing with protein amount (mg), and the luciferase activity per cell protein amount (RLU/mg protein) was calculated.
Using B-2 (Example 1), B-2-2 (Example 2), and B-2-3 (Example 3) as cationic lipids, MENDs having a composition of cationic lipid:SOPE:Chol=3:4:3 were prepared by the method described in [Experimental Example 1] (2). For the preparation, PEG2000DSG was used as PEG lipid, and MEND solutions corresponding to 0.55 mM of the lipid concentration were prepared. The gene expression was evaluated by the method described in [Example 4] (2).
Using compositions of B-2-4 (Example 4):DOPE:Chol=3:3:4, B-2-5 (Example 5):POPE:Chol=3:3:4, B-2 (Example 1):SOPE:Chol=5:3:2 as lipids, MENDs were prepared according to [Experimental Example 1](1) and (2). For the preparation, PEG2000-DMG was used as PEG lipid, and MEND solutions corresponding to 0.55 mM of the lipid concentration were prepared.
The gene expression activity was evaluated by the method described in [Experimental Example 4] (2).

[2] = Particle size and surface potential of siRNA MENDs prepared by t-BuOH injecting method; assay type: physicochemical; conditions: siRNA MEND, cationic lipid/cholesterol=70/30, DMG-PEG2000 3%
Protocol: (§1) A lipid solution in t-BuOH with a composition of cationic lipid/cholesterol=70/30, DMG-PEG2000 3% and a total lipid amount of 3000 nmol/400 μL (7.5 mM) was prepared in a 1.7 mL tube. In a separate 1.7 mL tube, an siRNA solution was prepared by mixing an siRNA aqueous solution containing siRNA (160 μg) and 20 mM malate buffer (pH 4.00, 30 mM NaCl) to total 50 μL. With vigorous stirring of the lipid solution, the siRNA solution was gradually added dropwise, and the mixed solution was taken in a 1 mL syringe. Then, 20 mM malate buffer (pH 4.00, 30 mM NaCl, 2 mL) was added into a 5 mL tube, and the mixed solution was gradually injected with vigorous stirring. Thereafter, the mixture was further diluted with PBS (7 mL) and centrifuged at 1000 g, 30° C. for 10 min in Amicon Ultra-15-100K to a volume of less than 1.5 mL. PBS (15 mL) was added, and the solution was centrifuged again to about 500-1000 μL. Finally, the MEND solution was adjusted by diluting with PBS to the object lipid concentration.
The particle size and surface potential of various MENDs were measured according to the method described in [Experimental Example 2] and the results are shown in Table 6.

Factor VII (FVII) [3] = assay: Knockdown effect of siRNA-encapsulated MEND prepared by t-BuOH injecting method; assay type: in vivo, ICR mice; conditions: varying doses of siRNA, tail vein
Protocol: A MEND solution prepared by the method shown in [Experimental Example 28] was administered to 4-week-old male ICR mice at 3 mg siRNA/kg from the tail vein, and blood was collected 24 hr later. This blood sample was centrifuged at 1000 g, 10 min, 4° C., and the supernatant was recovered to obtain plasma. The amount of Factor VII (FVII) in the plasma was quantified by BIOPHEN FVII CHROMOGENIC ASSAY (HYPHEN BioMed).
as §1
MENDs prepared by the method shown in Experimental Example 32 were administered by a method similar to the method shown in Experimental Example 30 with varying doses of siRNA, and the knockdown effect was evaluated. The results are shown in FIG. 35, FIG. 36, and FIG. 37.

Factor VII (FVII) [4] = assay: Knockdown effect of chemically-modified siRNA-encapsulated MEND; assay type: in vivo, ICR mice
Protocol: A MEND (Lipid/siRNA ratio=250) prepared using the compound of Example 13 and by the method shown in Experimental Example 32, and a MEND having the ratio of lipid and siRNA of Lipid/siRNA ratio=2250 were prepared. Furthermore, of Lipid/siRNA ratio=2250, MENDs wherein siRNA was replaced by chemically-modified one (2′-F) were prepared, and the knockdown effect was evaluated by the method shown in Experimental Example 33.

Row | Structure (SMILES) | PDI [1] | size (nm) [1] | zeta (mV) [1] | PDI [2] | size (nm) [2] | zeta (mV) [2] | gene expression activity (luciferase activity per cell protein) (HT1080 cells) | FVII expression level (knockdown effect) (Factor VII (FVII) [3]) | knockdown effect with chemically-modified siRNA (2′-F) (Factor VII (FVII) [4]; Lipid/siRNA ratio=2250) | knockdown effect, Lipid/siRNA ratio 2250 versus 250 (Factor VII (FVII) [4]; unmodified siRNA)
1 | Cc1c(C)c2c(c(C)c1OC(=O)CCC(=O)OCC1CCN(CCSSCCN3CCC(COC(=O)CCC(=O)Oc4c(C)c(C)c5c(c4C)CCC(C)(CCCC(C)CCCC(C)CCCC(C)C)O5)CC3)CC1)CCC(C)(CCCC(C)CCCC(C)CCCC(C)C)O2 (centres unmarked) [TS-P4C1] |  |  |  | 0.13 | 113 nm | −11.9 mV |  | highest knockdown effect |  | 
2 | Cc1c(C)c2c(c(C)c1OC(=O)CCC(=O)OCCC1CCN(CCSSCCN3CCC(CCOC(=O)CCC(=O)Oc4c(C)c(C)c5c(c4C)CCC(C)(CCCC(C)CCCC(C)CCCC(C)C)O5)CC3)CC1)CCC(C)(CCCC(C)CCCC(C)CCCC(C)C)O2 (centres unmarked) [TS-P4C2] |  |  |  | 0.07 | 125 nm | −8.5 mV |  | highest knockdown effect |  | 
3 | Cc1c(C)c2c(c(C)c1OC(=O)CCC(=O)OCCCC1CCN(CCSSCCN3CCC(CCCOC(=O)CCC(=O)Oc4c(C)c(C)c5c(c4C)CCC(C)(CCCC(C)CCCC(C)CCCC(C)C)O5)CC3)CC1)CCC(C)(CCCC(C)CCCC(C)CCCC(C)C)O2 (centres unmarked) [TS-P4C3] |  |  |  | 0.09 | 123 nm | −6.6 mV |  | highest knockdown effect |  | 

Continued, in another order:

Row | PDI [1] | size (nm) [1] | zeta (mV) [1] | PDI [2] | size (nm) [2] | zeta (mV) [2] | Structure (SMILES) | gene expression activity (luciferase activity per cell protein) (HT1080 cells) | FVII expression level (knockdown effect) (Factor VII (FVII) [3]) | knockdown effect with chemically-modified siRNA (2′-F) (Factor VII (FVII) [4]; Lipid/siRNA ratio=2250) | knockdown effect, Lipid/siRNA ratio 2250 versus 250 (Factor VII (FVII) [4]; unmodified siRNA)
4 | 0.132 | 134.6 nm | −5.77 mV |  |  |  | CCCCCCCCCCCCCCCCCC(=O)OCCCN(C)CCSSCCN(C)CCCOC(=O)CCCCCCCCCCCCCCCCC [Example B-2-2] | inferior to that of B-2, but exceeds that of conventional pH-responsive lipid cationic lipid, DODAP |  |  | 
5 | 0.091 | 148.7 nm | −7.97 mV |  |  |  | CCCCC/C=C\C/C=C\CCCCCCCC(=O)OCCCN(C)CCSSCCN(C)CCCOC(=O)CCCCCCC/C=C\C/C=C\CCCCC [Example B-2-3] | inferior to that of B-2, but exceeds that of conventional pH-responsive lipid cationic lipid, DODAP |  |  | 
6 |  |  |  | 0.11 | 123 nm | −6.9 mV | Cc1c(C)c2c(c(C)c1OC(=O)CCC(=O)OCCCCC1CCN(CCSSCCN3CCC(CCCCOC(=O)CCC(=O)Oc4c(C)c(C)c5c(c4C)CCC(C)(CCCC(C)CCCC(C)CCCC(C)C)O5)CC3)CC1)CCC(C)(CCCC(C)CCCC(C)CCCC(C)C)O2 (centres unmarked) [TS-P4C4] |  | highest knockdown effect | further enhanced the knockdown effect | knockdown effect was enhanced
